# Earlier results as cited in US6514544B2, “Beverage for increasing the body's capacity to break down alcohol and method thereof” (JHS-Privatstiftung, priority 1998, dated 2003).
smiles,measurement,setting,value
"CCO [alcohol, ethanol]",share of the reabsorbed alcohol excreted via the kidneys,approximately,1-2%
same,share of the reabsorbed alcohol excreted via the lungs,approximately,2-3%
same,amount directly glucuronated,slight amounts,0.5%
